What is called TGI is the concentration giving total growth inhibition. Read a low TGI as more potent growth arrest. By GI50 is commonly meant the concentration that inhibits growth by half.

Values joined by “and” are separate entries in the source; they are usually repeats but may differ in a detail not shown here. Identical values can stand only once.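 Grown in 96-well plates, cells were treated for 48 hours with each compound at five concentrations. Insufficient inhibition: endpoint recorded as highest concentration tested. Abbreviation: GI50, concentration required for 50% inhibition of growth. Definition used: TGI = concentration required for complete inhibition of growth.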

What all share (assay): DTP human tumour cell line panel, 48 h
The subject of experiment [1] is NCI-H226 lung.
Experiment [2] has as its system CCRF-CEM leukemia.
The subject of experiment [3] is SK-MEL-2 melanoma.
The subject of experiment [4] is OVCAR-8 ovarian.
For experiment [5], the system named is SNB-75 CNS.
The subject of experiment [6] is SNB-19 CNS.
Experiment [7] concerns UACC-62 melanoma.
Experiment [8] deals with RXF 393 renal.
Experiment [9] has as its system ACHN renal.
Experiment [10] has as its system MDA-MB-435.
In experiment [11] the test system is MDA-N.

Turning to `C=C(C)C12CC3CC(/C(=N/O)C(C1)/C3=N\O)[C@@]2(C)O` (stereo not given in full), the TGI in [1], in experiment [2], in experiment [3], in experiment [4], in experiment [5] and in experiment [6] was greater than 100 µM each time. In addition, the TGI in experiment [7], in [8] and in experiment [9] was greater than 100 µM throughout.
Regarding `O=C1/C(=C\c2ccc(Cl)cc2)N=C(c2ccccc2)N1n1c(=O)cn[nH]c1=S`, the TGI is 15.7 µM in [2]; greater than 100 µM in experiment [3]; 45.8 µM in [4]; greater than 100 µM in [6]; greater than 100 µM in experiment [7]; 87 µM in [10]. Besides, the TGI in experiment [9] and in experiment [11] was greater than 100 µM in each case.
Regarding `CSC1=N/C(=C\c2ccc(Cl)cc2)C(=O)N1CN1CCCCC1`, the TGI in [1], in experiment [2], in experiment [3], in experiment [4], in experiment [5] and in [7] was greater than 100 µM in each case. For the same compound, the TGI in experiment [10] was greater than 100 µM; in experiment [9] it was 96.2 µM; in [11] it was greater than 100 µM.
Take `Cc1c(C)c2ccc(OCC(O)COC(C)C)c(C)c2oc1=O` (stereo not given): the TGI in experiment [2] was 62.4 µM; in [3] it was 36.8 µM; in experiment [4] it was greater than 100 µM; in experiment [6], greater than 100 µM; in experiment [7], greater than 100 µM; in experiment [9] it was greater than 100 µM. For the same compound, the concentration for total growth inhibition (TGI) in experiment [11] came to 33 µM.
Consider `O=c1oc2ccc3ccccc3c2cc1-c1nnc(Nc2ccccc2)s1`, for which the total growth inhibition concentration (TGI) is 34.7 µM in experiment [3]; 65.4 µM in [6]; 53.9 µM in [7]; greater than 100 µM in experiment [10]; 29.7 µM in experiment [8]; 27.2 µM in experiment [9].
On to `CC(/C=C/C(=O)NO)=C\C(C)C(=O)c1ccc(N(C)C)cc1` (stereo not given), for which the TGI in experiment [1] was determined as 12.9 µM; in experiment [3], 0.778 µM; in [4], 41.6 µM; in experiment [5] it was 0.234 µM; in experiment [6], 0.654 µM; in experiment [7] it was 0.063 µM. Also, the TGI turned out to be 0.0467 µM in experiment [10], 0.104 µM in [8], 0.0942 µM in experiment [9] and 11.5 µM in experiment [11].
Turning to `COc1ccc(C(c2ccccc2)(c2ccc(OC)cc2)N2C(=O)NC3C(CCCCC(=O)NCCCCCCOP(OCCC#N)N(C(C)C)C(C)C)SCC32)cc1` (stereo not given), the TGI in experiment [1] was 30.4 µM; in [2], 25.6 µM; in experiment [3], 24.9 µM; in [4] it was 90.6 µM; in experiment [7], 27.4 µM; in [8] it was 24.2 µM. The compound further returned a TGI in [9] of 29.9 µM.
Turning to `CC(=O)OC[C@H]1CN(OC(C)=O)C[C@@H](n2cc(C)c(=O)[nH]c2=O)O1`, the TGI in [1], in experiment [3], in [4], in experiment [5], in experiment [6] and in [7] was greater than 100 µM in each case. Besides, the TGI in experiment [10], in experiment [8], in experiment [9] and in [11] was greater than 100 µM throughout.
`CC(C)(O)C(O)COc1c2c(cc3oc(=O)ccc13)OCO2` (stereo not given): the TGI in experiment [1], in [2], in [3], in experiment [4], in [5] and in [6] was greater than 100 µM in each case. The TGI in experiment [7], in experiment [8] and in experiment [9] was greater than 100 µM in each case.
As to `CN1C(=O)C2(C)SC1(c1ccccc1)C1C(=O)N(c3ccccc3)C(=O)C12` (stereo not given), the TGI in [1], in experiment [3], in [4], in [6], in experiment [7] and in experiment [10] was greater than 100 µM in each case. For the same compound, the TGI in experiment [8], in experiment [9] and in experiment [11] was greater than 100 µM throughout.
For the compound `CSc1nc(-c2ccc(Cl)cc2)c(C#N)c(=O)n1C1OC(COC(C)=O)C(OC(C)=O)C(OC(C)=O)C1OC(C)=O` (stereo not given), the TGI in experiment [1] is greater than 100 µM; in experiment [2] it was greater than 100 µM; in experiment [3], greater than 100 µM; in experiment [4], greater than 100 µM; in [5], 31.9 µM and > 100 µM; in [6], 39.4 µM and > 100 µM. The TGI in [7] is greater than 100 µM; in experiment [8], 25.6 µM and > 100 µM; in experiment [9], greater than 100 µM. Moreover, the GI50 was > 7.5 µM and 65.1 µM in [2]; 14.8 µM and > 100 µM in [5]; 13.9 µM and > 100 µM in experiment [6]; 30.5 µM and > 100 µM in experiment [7]; 10.6 µM and > 100 µM in [8]; 24 µM and > 100 µM in experiment [9].
With `COc1cc2c(cc1OC)OC(c1c(OC)ccc(OC)c1O)CC2` (stereo not given), the TGI in experiment [1] was greater than 100 µM; in [2], 77.8 µM; in experiment [3], greater than 100 µM; in [4], greater than 100 µM; in experiment [5], greater than 100 µM; in experiment [6] it was greater than 100 µM. Also, the total growth inhibition concentration (TGI) in experiment [7], in experiment [10], in [8] and in [9] was greater than 100 µM each time.
Take `COc1cccc2c1c1ccc3c(c1n2C)C(=O)C=CC3=O`: the TGI in [1] is greater than 100 µM; in experiment [2], greater than 100 µM; in [3] it was 33 µM; in experiment [4], 29.7 µM; in experiment [6] it was greater than 100 µM; in experiment [7] it was 31.2 µM. In [9], this compound had a TGI of 28.6 µM.
Turning to `CCOCCOCCOCc1nc(C#N)c(N)o1`, the TGI in experiment [1], in experiment [2], in [3], in [4], in experiment [5] and in experiment [7] was greater than 100 µM throughout. For the same compound, the TGI in experiment [10], in [8] and in experiment [9] was greater than 100 µM throughout.
For the compound `CC1CC(N)=C(C#N)C1(C#N)C#N` (stereo not given), the TGI in [1], in experiment [3], in experiment [4], in [5], in experiment [6] and in experiment [7] was greater than 100 µM throughout. In addition, the concentration for total growth inhibition (TGI) in [10], in [8], in [9] and in experiment [11] was greater than 100 µM each time.

For the origin of these results see PubChem BioAssay (NCI).
